Among the data in US12371428B2 (Exelixis, Inc., priority 2019, dated 2025) are IC50 values, retold here.

SMILES strings stand for the structures. Where a name gives a salt, the structure may show the parent alone.

In experiment [1] the target is KDR (phospho-KDR, VEGF165-stimulated HUVEC cells) (Homo sapiens (Human), UniProt P35968). Kind of experiment: KDR autophosphorylation ELISA in HUVEC cells (Example G). It is filed as cell-based. The conditions noted are these: cellular activity; KDR autophosphorylation ELISA in HUVEC cells. In short, it runs like this:
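IC50 values derive from nonlinear curve fitting of phospho-KDR levels measured by ELISA and interpolated from a phosphoprotein standard. Beforehand, starved HUVECs received compound (0.3% DMSO vehicle) for one hour and were activated with VEGF165 at 100 ng/mL for 5 min.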

Experiment [2] concerns the target Met (phospho-Met, HGF-stimulated PC-3 prostate cancer cells) (Homo sapiens (Human), UniProt P08581). Kind of experiment: Met autophosphorylation ELISA in PC-3 cells (Example F). It counts as cell-based. As to conditions: cellular activity; Met autophosphorylation ELISA in PC-3 cells; read-out: c-Met IC50. An outline of the steps: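 Sandwich ELISA for phospho-Met (panTyr) in PC-3 lysates. Cells starved 3 h serum-free, compound 1 h (8-pt curve, 0.3% DMSO), HGF 100 ng/mL 10 min. 100% = HGF + DMSO; 0% = HGF + reference inhibitor. IC50 by 4-parameter fit.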
For orientation: In an ELISA, binding on a coated surface is turned into a signal by an enzyme label.

For experiment [3], the target named is Human KDR (residues 790-1356) (Homo sapiens (Human), UniProt P35968). The experiment can be described thus: Human KDR kinase assay, HTRF KinEase (Example B-2). It is filed as biochemical. As to conditions: protocol of Example B-2 (other compounds). In short, it runs like this: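 Human KDR residues 790-1356 (0.1 ng/well) in buffer with 5 mM MgCl2, 1 mM MnCl2, 1 mM DTT, biotinylated peptide substrate, ATP at Km (4.0 μM), 3% DMSO, 10 compound concentrations; 40 min, room temperature. EDTA stop, streptavidin-XL665/Eu-TK antibody HTRF read 665/620 nm; 4-parameter IC50.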
Chain of Human KDR (residues 790-1356) (P35968 790-1356): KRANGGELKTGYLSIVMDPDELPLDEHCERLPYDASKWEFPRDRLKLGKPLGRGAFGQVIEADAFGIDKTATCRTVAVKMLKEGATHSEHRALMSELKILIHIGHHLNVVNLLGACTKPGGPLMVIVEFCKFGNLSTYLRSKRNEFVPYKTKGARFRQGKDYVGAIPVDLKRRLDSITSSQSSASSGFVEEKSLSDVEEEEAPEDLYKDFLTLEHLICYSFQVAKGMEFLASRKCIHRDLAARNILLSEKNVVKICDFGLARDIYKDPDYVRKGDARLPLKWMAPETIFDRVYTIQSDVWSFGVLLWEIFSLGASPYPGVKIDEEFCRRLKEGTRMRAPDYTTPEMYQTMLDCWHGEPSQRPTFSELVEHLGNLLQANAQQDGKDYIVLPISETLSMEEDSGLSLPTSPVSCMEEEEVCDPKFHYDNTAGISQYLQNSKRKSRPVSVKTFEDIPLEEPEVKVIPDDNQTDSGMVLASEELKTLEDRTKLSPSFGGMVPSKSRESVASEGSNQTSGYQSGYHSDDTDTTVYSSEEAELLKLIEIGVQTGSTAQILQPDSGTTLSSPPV
On the technique in general: Time-resolved FRET reads energy transfer from a long-lived donor to a nearby acceptor.

Experiment [4] addresses Human MER (residues 528-999) (Homo sapiens (Human), UniProt Q12866). The experiment can be described thus: Human Mer kinase assay, HTRF KinEase (Example C-2). It is filed as biochemical. The conditions noted are these: protocol of Example C-2 (other compounds). In short, it runs like this:
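IC50 values from 10 concentrations via 4-parameter logistic fit of […], with DMSO as 100% and 1 μM reference compound as 0% activity. Reaction: MER kinase domain 528-999, 1 ng/well, 40 μM ATP (Km), biotin peptide, 5 mM MgCl2, 1 mM DTT, 3% DMSO, room temperature 60 min; HTRF streptavidin-XL665/Eu-antibody detection.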

Usually IC50 stands for the concentration needed to halve the response being measured.

Chain of Met (phospho-Met, HGF-stimulated PC-3 prostate cancer cells) (P08581 25-1390): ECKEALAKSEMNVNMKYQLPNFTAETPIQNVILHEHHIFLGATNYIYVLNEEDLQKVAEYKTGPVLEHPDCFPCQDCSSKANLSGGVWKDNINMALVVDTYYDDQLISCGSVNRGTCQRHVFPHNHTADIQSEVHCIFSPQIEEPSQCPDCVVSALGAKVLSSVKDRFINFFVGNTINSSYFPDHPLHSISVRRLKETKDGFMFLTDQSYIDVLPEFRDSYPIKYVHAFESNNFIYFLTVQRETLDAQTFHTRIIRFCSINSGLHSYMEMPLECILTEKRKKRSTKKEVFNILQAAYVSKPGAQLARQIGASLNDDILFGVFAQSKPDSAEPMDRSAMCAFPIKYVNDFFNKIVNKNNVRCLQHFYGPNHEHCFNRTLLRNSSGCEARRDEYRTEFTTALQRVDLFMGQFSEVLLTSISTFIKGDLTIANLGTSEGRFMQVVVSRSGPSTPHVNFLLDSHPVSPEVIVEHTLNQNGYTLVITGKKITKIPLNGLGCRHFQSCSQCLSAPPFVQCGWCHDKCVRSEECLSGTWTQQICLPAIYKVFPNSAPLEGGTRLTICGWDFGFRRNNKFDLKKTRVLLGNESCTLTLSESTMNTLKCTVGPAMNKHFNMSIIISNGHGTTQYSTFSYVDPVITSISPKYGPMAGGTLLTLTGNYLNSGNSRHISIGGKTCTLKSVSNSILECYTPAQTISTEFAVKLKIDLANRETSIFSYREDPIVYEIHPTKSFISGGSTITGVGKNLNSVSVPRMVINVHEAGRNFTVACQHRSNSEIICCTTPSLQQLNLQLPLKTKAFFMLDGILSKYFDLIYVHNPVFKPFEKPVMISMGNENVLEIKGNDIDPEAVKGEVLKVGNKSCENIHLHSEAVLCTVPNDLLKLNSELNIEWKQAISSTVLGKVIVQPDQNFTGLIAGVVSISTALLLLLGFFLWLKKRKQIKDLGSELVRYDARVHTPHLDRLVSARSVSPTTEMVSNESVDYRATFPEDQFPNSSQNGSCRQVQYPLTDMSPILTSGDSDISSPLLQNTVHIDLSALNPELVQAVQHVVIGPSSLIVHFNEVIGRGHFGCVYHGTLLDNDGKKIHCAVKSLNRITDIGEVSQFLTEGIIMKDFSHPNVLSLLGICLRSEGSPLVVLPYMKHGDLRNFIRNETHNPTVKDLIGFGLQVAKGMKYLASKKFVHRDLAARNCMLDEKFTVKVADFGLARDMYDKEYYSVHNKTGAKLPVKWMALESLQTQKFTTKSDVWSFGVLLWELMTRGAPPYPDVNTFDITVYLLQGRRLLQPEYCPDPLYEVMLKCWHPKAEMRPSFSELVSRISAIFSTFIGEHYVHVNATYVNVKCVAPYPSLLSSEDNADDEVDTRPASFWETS
Chain of Human MER (residues 528-999) (Q12866 528-999): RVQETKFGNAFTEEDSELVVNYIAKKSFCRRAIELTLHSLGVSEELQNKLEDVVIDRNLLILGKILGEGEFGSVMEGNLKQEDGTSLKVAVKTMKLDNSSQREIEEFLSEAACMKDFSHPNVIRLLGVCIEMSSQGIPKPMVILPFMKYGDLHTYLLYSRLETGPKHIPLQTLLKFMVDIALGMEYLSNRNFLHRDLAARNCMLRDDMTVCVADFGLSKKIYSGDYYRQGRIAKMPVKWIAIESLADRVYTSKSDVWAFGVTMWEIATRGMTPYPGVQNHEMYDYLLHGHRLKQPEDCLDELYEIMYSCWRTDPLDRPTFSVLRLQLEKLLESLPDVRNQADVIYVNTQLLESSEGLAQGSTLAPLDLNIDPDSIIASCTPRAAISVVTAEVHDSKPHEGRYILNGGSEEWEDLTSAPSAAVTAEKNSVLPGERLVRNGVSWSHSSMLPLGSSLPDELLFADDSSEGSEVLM
Chain of KDR (phospho-KDR, VEGF165-stimulated HUVEC cells) (P35968 20-1356): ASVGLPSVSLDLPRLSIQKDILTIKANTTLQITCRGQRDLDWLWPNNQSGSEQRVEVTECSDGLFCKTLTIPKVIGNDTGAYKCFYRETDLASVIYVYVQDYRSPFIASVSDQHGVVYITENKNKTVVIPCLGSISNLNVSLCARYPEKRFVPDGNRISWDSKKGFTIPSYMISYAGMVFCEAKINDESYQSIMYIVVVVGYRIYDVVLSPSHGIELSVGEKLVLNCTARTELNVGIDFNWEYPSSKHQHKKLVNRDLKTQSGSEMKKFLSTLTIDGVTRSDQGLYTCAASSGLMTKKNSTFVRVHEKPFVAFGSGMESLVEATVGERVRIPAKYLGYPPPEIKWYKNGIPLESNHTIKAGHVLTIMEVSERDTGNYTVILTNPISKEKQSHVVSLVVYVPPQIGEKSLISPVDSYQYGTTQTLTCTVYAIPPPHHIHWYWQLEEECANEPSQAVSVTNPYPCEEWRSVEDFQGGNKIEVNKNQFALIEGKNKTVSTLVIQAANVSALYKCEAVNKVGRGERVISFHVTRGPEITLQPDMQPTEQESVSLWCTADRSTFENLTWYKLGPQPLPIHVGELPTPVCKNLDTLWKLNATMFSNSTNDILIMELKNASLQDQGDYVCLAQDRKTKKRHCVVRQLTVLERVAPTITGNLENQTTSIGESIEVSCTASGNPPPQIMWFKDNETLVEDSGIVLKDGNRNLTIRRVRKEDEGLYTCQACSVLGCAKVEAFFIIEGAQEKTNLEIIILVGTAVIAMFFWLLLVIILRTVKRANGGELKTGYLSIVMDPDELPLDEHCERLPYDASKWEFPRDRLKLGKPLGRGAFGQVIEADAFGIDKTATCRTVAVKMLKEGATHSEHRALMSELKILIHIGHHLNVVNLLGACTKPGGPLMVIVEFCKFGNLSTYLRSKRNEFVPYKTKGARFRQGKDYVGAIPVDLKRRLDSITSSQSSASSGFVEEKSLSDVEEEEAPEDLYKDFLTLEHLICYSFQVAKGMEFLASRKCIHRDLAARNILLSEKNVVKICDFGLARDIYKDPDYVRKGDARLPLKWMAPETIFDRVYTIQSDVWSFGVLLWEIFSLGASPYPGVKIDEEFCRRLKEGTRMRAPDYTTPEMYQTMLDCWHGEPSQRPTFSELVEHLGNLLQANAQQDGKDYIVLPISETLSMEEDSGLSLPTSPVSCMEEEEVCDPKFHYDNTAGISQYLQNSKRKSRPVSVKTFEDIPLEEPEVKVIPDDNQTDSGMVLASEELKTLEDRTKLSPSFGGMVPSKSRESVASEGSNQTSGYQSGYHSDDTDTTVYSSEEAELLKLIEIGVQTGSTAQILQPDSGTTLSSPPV

For `COc1cc2nccc(Oc3ccc(NC(=O)c4ccc(C)n(-c5ccc(F)cc5)c4=O)cc3)c2nc1OC` [Compound 229, N-[4-[(6,7-Dimethoxy-1,5-naphthyridin-4-yl)oxy]phenyl]-1-(4-fluorophenyl)-6-methyl-2-oxopyridine-3-carboxamide], the IC50 in experiment [1], in experiment [2], in experiment [3] and in experiment [4] was less than 100 nM in each case.
On to `COc1cnc2c(Oc3ccc(NC(=O)c4n[nH]c(C)c(-c5ccc(F)cc5C)c4=O)cc3F)ccnc2c1` [Compound 249A, N-[3-Fluoro-4-[(7-methoxy-1,5-naphthyridin-4-yl)oxy]phenyl]-5-(4-fluoro-2-methylphenyl)-6-methyl-4-oxo-1H-pyridazine-3-carboxamide], for which the IC50 in experiment [1] is 100 to 300 nM; in experiment [2], less than 100 nM; in experiment [3] it was greater than 300 nM; in experiment [4], less than 100 nM.
`COc1cc2nccc(Oc3ccc(NC(=O)c4cn(CC(F)(F)F)c(C)c(-c5ccc(F)cc5)c4=O)cc3F)c2cc1OC` [Compound 259, N-[4-(6,7-Dimethoxyquinolin-4-yl)oxy-3-fluorophenyl]-5-(4-fluorophenyl)-6-methyl-4-oxo-1-(2,2,2-trifluoroethyl)pyridine-3-carboxamide]: the concentration for half-maximal inhibition (IC50) in experiment [1] was 100 to 300 nM; in experiment [2] it was less than 100 nM; in experiment [3] it was 100 to 300 nM; in experiment [4] it was less than 100 nM.
With `COc1ccc(-c2c(C)n(C(C)C)cc(C(=O)Nc3ccc(Oc4ccnc5cc(OC)c(OC)nc45)c(F)c3)c2=O)cc1` [Compound 31, N-[4-[(6,7-dimethoxy-1,5-naphthyridin-4-yl)oxy]-3-fluorophenyl]-5-(4-methoxyphenyl)-6-methyl-4-oxo-1-propan-2-ylpyridine-3-carboxamide hydrochloride], the 50% inhibitory concentration (IC50) in experiment [1] was greater than 300 nM; in experiment [2], 100 to 300 nM; in experiment [3] it was less than 100 nM; in experiment [4] it was less than 100 nM.
In the case of `COCc1nc(C)c(-c2ccc(F)cc2C)c(O)c1C(=O)Nc1ccc(Oc2ccnc3cc(OC)cnc23)c(F)c1` [Compound 193, N-[3-Fluoro-4-[(7-methoxy-1,5-naphthyridin-4-yl)oxy]phenyl]-5-(4-fluoro-2-methylphenyl)-4-hydroxy-2-(methoxymethyl)-6-methylpyridine-3-carboxamide], the half-inhibitory concentration (IC50) was less than 100 nM in experiment [1], less than 100 nM in experiment [2], 100 to 300 nM in experiment [3] and less than 100 nM in experiment [4].
As for `COc1ccc2nccc(Oc3ccc(NC(=O)c4c(C)n(C)cc(-c5ccc(F)cc5)c4=O)cc3F)c2n1` [Compound 243, N-[3-Fluoro-4-[(6-methoxy-1,5-naphthyridin-4-yl)oxy]phenyl]-5-(4-fluorophenyl)-1,2-dimethyl-4-oxopyridine-3-carboxamide], the half-inhibitory concentration (IC50) in experiment [1] is greater than 300 nM; in experiment [2], less than 100 nM; in experiment [3], greater than 300 nM; in experiment [4] it was less than 100 nM.
For `COc1cnc2c(Oc3ccc(NC(=O)c4n[nH]c(C)c(-c5ccc(F)cc5)c4=O)cc3F)ccnc2c1` [Compound 246, N-[3-Fluoro-4-[(7-methoxy-1,5-naphthyridin-4-yl)oxy]phenyl]-5-(4-fluorophenyl)-6-methyl-4-oxo-1H-pyridazine-3-carboxamide], the half-maximal inhibitory concentration (IC50) in experiment [1], in experiment [2], in experiment [3] and in experiment [4] was less than 100 nM in each case.
Turning to `COc1cc2nccc(Oc3ccc(NC(=O)c4n[nH]c(C)c(-c5ccc(F)cc5C)c4=O)cc3)c2nc1OC` [Compound 247, N-[4-[(6,7-Dimethoxy-1,5-naphthyridin-4-yl)oxy]phenyl]-5-(4-fluoro-2-methylphenyl)-6-methyl-4-oxo-1H-pyridazine-3-carboxamide], the IC50 in experiment [1], in experiment [2], in experiment [3] and in experiment [4] was less than 100 nM each time.
In the case of `COc1cc2nccc(Oc3ccc(NC(=O)c4cn(C)cc(-c5ccccc5)c4=O)cc3F)c2nc1OC` [Compound 33, N-[4-[(6,7-Dimethoxy-1,5-naphthyridin-4-yl)oxy]-3-fluorophenyl]-1-methyl-4-oxo-5-phenylpyridine-3-carboxamide hydrochloride], the 50% inhibitory concentration (IC50) in experiment [1], in experiment [2], in experiment [3] and in experiment [4] was less than 100 nM each time.
In the case of `COCc1nc(C)c(-c2ccc(F)cc2)c(O)c1C(=O)Nc1ccc(Oc2ccnc3cc(OC)c(OC)nc23)cc1` [Compound 190, N-[4-[(6,7-Dimethoxy-1,5-naphthyridin-4-yl)oxy]phenyl]-5-(4-fluorophenyl)-4-hydroxy-2-(methoxymethyl)-6-methylpyridine-3-carboxamide], the IC50 in experiment [1], in experiment [2], in experiment [3] and in experiment [4] was less than 100 nM in each case.
Regarding `COc1ccc2nccc(Oc3ccc(NC(=O)c4c(C)ncn(-c5ccc(F)cc5)c4=O)cc3F)c2n1` [Compound 234, N-[3-Fluoro-4-[(6-methoxy-1,5-naphthyridin-4-yl)oxy]phenyl]-1-(4-fluorophenyl)-4-methyl-6-oxopyrimidine-5-carboxamide], the IC50 was 100 to 300 nM in experiment [1], less than 100 nM in experiment [2], greater than 300 nM in experiment [3] and less than 100 nM in experiment [4].
As for `COc1cnc2c(Oc3ccc(NC(=O)c4cn(C)c(CO)c(-c5ccc(F)cc5)c4=O)cc3F)ccnc2c1` [Compound 222, N-[3-Fluoro-4-[(7-methoxy-1,5-naphthyridin-4-yl)oxy]phenyl]-5-(4-fluorophenyl)-6-(hydroxymethyl)-1-methyl-4-oxopyridine-3-carboxamide], the IC50 is greater than 300 nM in experiment [1], less than 100 nM in experiment [2], greater than 300 nM in experiment [3] and less than 100 nM in experiment [4].
On to `COc1cnc2c(Oc3ccc(NC(=O)c4c(C)nc(C)n(-c5ccc(F)cc5)c4=O)cc3)ccnc2c1` [Compound 258, 1-(4-Fluorophenyl)-N-[4-[(7-methoxy-1,5-naphthyridin-4-yl)oxy]phenyl]-2,4-dimethyl-6-oxopyrimidine-5-carboxamide], for which the IC50 in experiment [1] was 100 to 300 nM; in experiment [2], less than 100 nM; in experiment [3] it was less than 100 nM; in experiment [4] it was less than 100 nM.
With `COc1cnc2c(Oc3ccc(NC(=O)c4c(C)nc(C)c(-c5ccc(F)cc5C)c4O)cc3F)ccnc2c1` [Compound 178, N-[3-Fluoro-4-[(7-methoxy-1,5-naphthyridin-4-yl)oxy]phenyl]-5-(4-fluoro-2-methylphenyl)-4-hydroxy-2,6-dimethylpyridine-3-carboxamide], the IC50 in experiment [1], in experiment [2], in experiment [3] and in experiment [4] was less than 100 nM in each case.
For `CCc1nc(C)c(-c2ccc(F)cc2C)c(O)c1C(=O)Nc1ccc(Oc2ccnc3cc(OC)cnc23)c(F)c1` [Compound 204, 2-Ethyl-N-[3-fluoro-4-[(7-methoxy-1,5-naphthyridin-4-yl)oxy]phenyl]-5-(4-fluoro-2-methylphenyl)-4-hydroxy-6-methylpyridine-3-carboxamide], the 50% inhibitory concentration (IC50) is less than 100 nM in experiment [1], less than 100 nM in experiment [2], 100 to 300 nM in experiment [3] and less than 100 nM in experiment [4].
`COCCOc1nc2c(Oc3ccc(NC(=O)c4n[nH]c(C)c(-c5ccc(F)cc5C)c4=O)cc3F)ccnc2cc1OC` [Compound 252, N-[3-Fluoro-4-[[7-methoxy-6-(2-methoxyethoxy)-1,5-naphthyridin-4-yl]oxy]phenyl]-5-(4-fluoro-2-methylphenyl)-6-methyl-4-oxo-1H-pyridazine-3-carboxamide]: the IC50 in experiment [1] is less than 100 nM; in experiment [2], less than 100 nM; in experiment [3] it was 100 to 300 nM; in experiment [4] it was less than 100 nM.
For the molecule `COCCOc1nc2c(Oc3ccc(NC(=O)c4cn(C)c(CO)c(-c5ccc(F)cc5)c4=O)cc3F)ccnc2cc1OC` [Compound 228, N-[3-Fluoro-4-[[7-methoxy-6-(2-methoxyethoxy)-1,5-naphthyridin-4-yl]oxy]phenyl]-5-(4-fluorophenyl)-6-(hydroxymethyl)-1-methyl-4-oxopyridine-3-carboxamide], the IC50 in experiment [1] was greater than 300 nM; in experiment [2], less than 100 nM; in experiment [3] it was 100 to 300 nM; in experiment [4], less than 100 nM.
As for `COCc1nc(C)c(-c2ccc(F)cc2C)c(O)c1C(=O)Nc1ccc(Oc2ccnc3cc(OC)cnc23)cc1` [Compound 194, 5-(4-Fluoro-2-methylphenyl)-4-hydroxy-2-(methoxymethyl)-N-[4-[(7-methoxy-1,5-naphthyridin-4-yl)oxy]phenyl]-6-methylpyridine-3-carboxamide], the IC50 in experiment [1] is less than 100 nM; in experiment [2] it was less than 100 nM; in experiment [3] it was 100 to 300 nM; in experiment [4] it was less than 100 nM.
